# Experimental data as given in US20100210602A1, “PhoU (PerF), A P[…] INVOLVED IN [sequence] FORMATION AND TOLERANCE TO MULTIPLE ANTIBIOTICS AND [sequence] AS A DRUG TARGET FOR [sequence] BACTERIA” (priority 2006, published 2010).
# Where two headings read alike, the source gives them in different places.
# What was measured:
# W3110 [1] = tested on: W3110
# JHU-313 = experiment: Kirby-Bauer paper disc assay, zone inhibition
# JHU-313 containing pPhoU [2] = experiment: Kirby-Bauer paper disc assay, zone inhibition
# [3] = tested on: JHU-313 containing pVector; experiment: Kirby-Bauer paper disc assay, zone inhibition
# wild type strain W3110 [4] = experiment: microbe, parasite or virus in culture; assay type: cell-based, E. coli; details: Escherichia coli, W3110, LB broth, 16 h at 37° C.
# PhoU mutant (JHU-313) [5] = experiment: MIC/MBC by serial two-fold dilutions in LB broth; assay type: cell-based, E. coli; details: Escherichia coli, 16 h at 37° C.
# JHU-313 containing pPhoU [6] = experiment: MIC/MBC by serial two-fold dilutions in LB broth; assay type: cell-based, E. coli; details: Escherichia coli, 16 h at 37° C.
# [7] = tested on: JHU-313 containing pVector; experiment: MIC/MBC by serial two-fold dilutions in LB broth; assay type: cell-based, E. coli; details: Escherichia coli, 16 h at 37° C.
# wild type strain W3110 [8] = assay type: cell-based, E. coli; details: 20 h after 1.5 h ampicillin pre-exposure; ampicillin 100, gentamicin 20, trimethoprim 16, norfloxacin 5 μg/ml
# PhoU mutant (JHU-313) [9] = experiment: Sequential antibiotic exposure of ampicillin persisters (CFU); assay type: cell-based, E. coli; details: 20 h after 1.5 h ampicillin pre-exposure; ampicillin 100, gentamicin 20, trimethoprim 16, norfloxacin 5 μg/ml
# wild type strain W3110 [10] = assay type: cell-based
# [11] = tested on: PhoU transposon mutant (JHU-313); assay type: cell-based
# [12] = tested on: PhoU deletion mutant (ΔphoU); assay type: cell-based
# W3110 [13] = experiment: microbe, parasite or virus in culture; details: Escherichia coli, read-out: zone inhibition
# [14] = log phase, 1 week, Ap100, Norf3
# [15] = log phase, 5 hr, ampicillin 100 μg/ml (Ap100), norfloxacin 3 μg/ml (Norf3)
# [16] = log phase, 3 days, Ap100, Norf3
# [17] = log phase, 5 days, Ap100, Norf3
# [18] = log phase, 10 days, Ap100, Norf3
# [19] = log phase, ampicillin 100 μg/ml, norfloxacin 3 μg/ml
# [20] = stationary phase, 3 μg/ml, 120 hr exposure
# [21] = stationary phase, 1 week, Ap100, Norf3
# [22] = stationary phase, 5 hr, ampicillin 100 μg/ml (Ap100), norfloxacin 3 μg/ml (Norf3)
# [23] = stationary phase, 1 day, Ap100, Norf3
# [24] = stationary phase, 3 days, Ap100, Norf3
# [25] = stationary phase, 5 days, Ap100, Norf3
# [26] = stationary phase, 10 days, Ap100, Norf3
# [27] = stationary phase, norfloxacin 3 μg/ml
# [28] = Escherichia coli, read-out: zone inhibition
structure (smiles),measurement,setting,value
"OO [Hydrogen peroxide, hydrogen peroxide]",zone inhibition,W3110 [1],30 mm
same,zone inhibition,JHU-313; peroxide (30%),37 mm
same,zone inhibition,JHU-313 containing pPhoU [2]; peroxide (30%),39 mm
same,zone inhibition,[3]; peroxide (30%),46 mm
"CCn1cc(C(=O)O)c(=O)c2cc(F)c(N3CCNCC3)cc21 [Norfloxacin, norfloxacin]",MBC,wild type strain W3110 [4]; read-out: MBC,1 µg/mL
same,MIC,wild type strain W3110 [4]; read-out: MIC,0.5 µg/mL
same,MBC,PhoU mutant (JHU-313) [5]; read-out: MBC,0.5 µg/mL
same,MIC,PhoU mutant (JHU-313) [5]; read-out: MIC,0.125 µg/mL
same,MBC,JHU-313 containing pPhoU [6]; read-out: MBC,1 µg/mL
same,MIC,JHU-313 containing pPhoU [6]; read-out: MIC,0.5 µg/mL
same,MBC,[7]; read-out: MBC,0.5 µg/mL
same,MIC,[7]; read-out: MIC,0.125 µg/mL
same,CFU after second antibiotic exposure,wild type strain W3110 [8],7 × 10^5 CFU/ml
same,CFU after second antibiotic exposure,PhoU mutant (JHU-313) [9],0 CFU/ml
same,CFU,wild type strain W3110 [10]; [14],0 CFU
same,CFU,wild type strain W3110 [10]; [15],1 × 10^8 CFU
same,CFU,"wild type strain W3110 [10]; log phase, 1 day, Ap100, Norf3",4 × 10^6 CFU
same,CFU,wild type strain W3110 [10]; [16],5 × 10^4 CFU
same,CFU,wild type strain W3110 [10]; [17],7 × 10^2 CFU
same,CFU,wild type strain W3110 [10]; [18],0 CFU
same,time to killing of all cells,wild type strain W3110 [10]; [19],5 days
same,viable bacteria left,wild type strain W3110 [10]; [20],about 10^7 CFU/ml
same,CFU,wild type strain W3110 [10]; [21],1.5 × 10^4 CFU
same,CFU,wild type strain W3110 [10]; [22],5 × 10^9 CFU
same,CFU,wild type strain W3110 [10]; [23],4 × 10^9 CFU
same,CFU,wild type strain W3110 [10]; [24],1 × 10^8 CFU
same,CFU,wild type strain W3110 [10]; [25],4 × 10^6 CFU
same,CFU,wild type strain W3110 [10]; [26],2 × 10^2 CFU
same,CFU,[11]; [14],0 CFU
same,CFU,[11]; [15],2 × 10^7 CFU
same,CFU,"[11]; log phase, 1 day, Ap100, Norf3",4 × 10^5 CFU
same,CFU,[11]; [16],0 CFU
same,CFU,[11]; [17],0 CFU
same,CFU,[11]; [18],0 CFU
same,time to killing of all cells,[11]; [19],1 days
same,viable bacteria left,[11]; [20],no viable bacteria were left
same,CFU,[11]; [21],0 CFU
same,CFU,[11]; [22],3 × 10^8 CFU
same,CFU,[11]; [23],4.5 × 10^7 CFU
same,CFU,[11]; [24],2 × 10^5 CFU
same,CFU,[11]; [25],0 CFU
same,CFU,[11]; [26],0 CFU
same,time to complete killing,[11]; [27],≤ 5 days
same,CFU,[12]; [14],0 CFU
same,CFU,[12]; [15],5 × 10^7 CFU
same,CFU,"[12]; log phase, 1 day, Ap100, Norf3",1 × 10^6 CFU
same,CFU,[12]; [16],0 CFU
same,CFU,[12]; [17],0 CFU
same,CFU,[12]; [18],0 CFU
same,time to killing of all cells,[12]; [19],1 days
same,CFU,[12]; [21],0 CFU
same,CFU,[12]; [22],6 × 10^8 CFU
same,CFU,[12]; [23],2 × 10^8 CFU
same,CFU,[12]; [24],3 × 10^5 CFU
same,CFU,[12]; [25],0 CFU
same,CFU,[12]; [26],0 CFU
same,time to complete killing,[12]; [27],≤ 5 days
same,zone of inhibition at 0.1 µg/mL,W3110 [13],24 mm
same,zone of inhibition at 0.5 µg/mL,W3110 [13],27 mm
same,zone of inhibition at 2 µg/mL,W3110 [13],30 mm
same,zone of inhibition at 4 µg/mL,W3110 [13],32 mm
same,zone of inhibition at 0.1 µg/mL,JHU-313; [28],28 mm
same,zone of inhibition at 0.5 µg/mL,JHU-313; [28],30 mm
same,zone of inhibition at 2 µg/mL,JHU-313; [28],34 mm
same,zone of inhibition at 4 µg/mL,JHU-313; [28],37 mm
same,zone of inhibition at 0.1 µg/mL,JHU-313 containing pPhoU [2]; [28],27 mm
same,zone of inhibition at 0.5 µg/mL,JHU-313 containing pPhoU [2]; [28],31 mm
same,zone of inhibition at 2 µg/mL,JHU-313 containing pPhoU [2]; [28],35 mm
same,zone of inhibition at 4 µg/mL,JHU-313 containing pPhoU [2]; [28],36 mm
same,zone of inhibition at 0.1 µg/mL,[3]; [28],29 mm
same,zone of inhibition at 0.5 µg/mL,[3]; [28],35 mm
same,zone of inhibition at 2 µg/mL,[3]; [28],40 mm
same,zone of inhibition at 4 µg/mL,[3]; [28],44 mm
CN(C)[C@@H]1C(O)=C(C(N)=O)C(=O)[C@@]2(O)C(O)=C3C(=O)c4c(O)cccc4[C@@](C)(O)[C@H]3C[C@@H]12 [Tetracycline],zone of inhibition at 12.5 µg/mL,W3110 [13],22 mm
same,zone of inhibition at 25 µg/mL,W3110 [13],23 mm
same,zone of inhibition at 50 µg/mL,W3110 [13],23 mm
same,zone of inhibition at 12.5 µg/mL,JHU-313; [28],26 mm
same,zone of inhibition at 25 µg/mL,JHU-313; [28],32 mm
same,zone of inhibition at 50 µg/mL,JHU-313; [28],32 mm
same,zone of inhibition at 12.5 µg/mL,JHU-313 containing pPhoU [2]; [28],30 mm
same,zone of inhibition at 25 µg/mL,JHU-313 containing pPhoU [2]; [28],32 mm
same,zone of inhibition at 50 µg/mL,JHU-313 containing pPhoU [2]; [28],32 mm
same,zone of inhibition at 12.5 µg/mL,[3]; [28],34 mm
same,zone of inhibition at 25 µg/mL,[3]; [28],34 mm
same,zone of inhibition at 50 µg/mL,[3]; [28],34 mm
